Results on eleven molecules are retold here after patent US9963464B2, “Macrocyclic compounds” (Bayer Pharma Aktiengesellschaft, priority 2014, dated 2018).

Molecules are shown by their SMILES. Read-outs that look alike come from different tables or passages of the source.

The subject of one assay is HeLa cells. As to the kind of experiment: Proliferation assay HeLa. Type of assay: cell-based, human. As to conditions: 4 days, crystal violet, read-out: Inhibition of HeLa cell proliferation IC50. How it is done:
(§1) Cultivated tumour cells (HeLa, human cervical tumour cells, ATCC CCL-2; NCI-H460, human non-small cell lung carcinoma cells, ATCC HTB-177; A2780, human ovarian carcinoma cells, ECACC #93112519; DU 145, hormone-independent human prostate carcinoma cells, ATCC HTB-81; HeLa-MaTu-ADR, multidrug-resistant human cervical carcinoma cells, EPO-GmbH Berlin; Caco-2, human colorectal carcinoma cells, ATCC HTB-37; B16F10, mouse melanoma cells, ATCC CRL-6475) were plated at a density of 5,000 cells/well (DU145, HeLa-MaTu-ADR), 3,000 cells/well (NCI-H460, HeLa), 2,500 cells/well (A2780), 1,500 cells/well (Caco-2), or 1,000 cells/well (B16F10) in a 96-well multititer plate in 200 μL of their respective growth medium supplemented 10% fetal calf serum. After 24 hours, the cells of one plate (zero-point plate) were stained with crystal violet (see below), while the medium of the other plates was replaced by fresh culture medium (200 μl), to which the test substances were added in various concentrations (0 μM, as well as in the range of 0.001-10 μM). The cells were incubated for 4 days in the presence of test substances. Cell proliferation was determined by staining the cells with crystal violet: the cells were fixed by adding 20 μl/measuring point of an 11% glutaric aldehyde solution for 15 minutes at room temperature. After three washing cycles of the fixed cells with water, the plates were dried at room temperature. The cells were stained by adding 100 μl/measuring point of a 0.1% crystal violet solution (pH 3.0). After three washing cycles of the stained cells with water, the plates were dried at room temperature. The dye was dissolved by adding 100 μl/measuring point of a 10% acetic acid solution. The extinction was determined by photometry at a wavelength of 595 nm. The change of cell number, in percent, was calculated by normalization of the measured values to the extinction values of the zero-point plate (=0%) and the extinction of the untreated (0 μm) cells (=100%). The IC50 values (inhibitory concentration at 50% of maximal effect) were determined by means of a 4 parameter fit. Non-adherent MOLM-13 human acute myeloid leukemia cells (DSMZ ACC 554) were seeded at a density of 5,000 cells/well in a 96-well multititer plate in 100 μL of growth medium supplemented 10% fetal calf serum. After 24 hours, cell viability of one plate (zero-point plate) was determined with the Cell Titre-Glo Luminescent Cell Viability Assay (Promega), while 50 μL of test compound containing medium was added to the wells of the other plates (final concentrations in the range of 0.001-1 μM and DMSO controls). Cell viability was assessed after 72-hour exposure with the Cell Titre-Glo Luminescent Cell Viability Assay (Promega). IC50 values (inhibitory concentration at 50% of maximal effect) were determined by means of a 4 parameter fit on measurement data which were normalized to vehicle (DMSO) treated cells (=100%) and measurement readings taken immediately before compound exposure (=0%).

Another assay concerns DU145 cells. Kind of assay: Proliferation assay DU145. Type of assay: cell-based, human. As to conditions: 4 days, crystal violet, read-out: Inhibition of DU145 cell proliferation IC50. As to the method: as §1
A further assay has as its target T1, CDK2/CycE (Homo sapiens, UniProt P24941).
T1 construct: GST; purchased ProQinase GmbH (Freiburg, Germany); host or cells: insect cells (Sf9)
Kind of assay: CDK2/CycE high ATP kinase assay (TR-FRET, Method 2b). Type of assay: biochemical. As to conditions: 2 mM ATP. As to the method:
2b. CDK2/CycE High ATP Kinase Assay:
CDK2/CycE-inhibitory activity of compounds of the present invention at 2 mM adenosine-tri-phosphate (ATP) was quantified employing the CDK2/CycE TR-FRET (TR-FRET=Time Resolved Fluorescence Resonance Energy Transfer) assay as described in the following paragraphs.
Recombinant fusion proteins of GST and human CDK2 and of GST and human CycE, expressed in insect cells (Sf9) and purified by Glutathion-Sepharose affinity chromatography, were purchase from ProQinase GmbH (Freiburg, Germany). As substrate for the kinase reaction biotinylated peptide biotin-Ttds-YISPLKSPYKISEG (C-terminus in amid form) was used which can be purchased e.g. from the company JERINI peptide technologies (Berlin, Germany).
For the assay 50 nl of a 100 fold concentrated solution of the test compound in DMSO was pipetted into a black low volume 384 well microtiter plate (Greiner Bio-One, Frickenhausen, Germany), 2 μl of a solution of CDK2/CycE in aqueous assay buffer [50 mM Tris/HCl pH 8.0, 10 mM MgCl2, 1.0 mM dithiothreitol, 0.1 mM sodium ortho-vanadate, 0.01% (v/v) Nonidet-P40 (Sigma)] were added and the mixture was incubated for 15 min at 22° C. to allow pre-binding of the test compounds to the enzyme before the start of the kinase reaction. […] The concentration of CDK2/CycE was adjusted depending of the activity of the enzyme lot and was chosen appropriate to have the assay in the linear range, typical concentrations were in the range of 15 ng/ml. The reaction was stopped by the addition of 5 μl of a solution of TR-FRET detection reagents (0.2 μM streptavidine-XL665 [Cisbio Bioassays, Codolet, France] and 1 nM anti-RB(pSer807/pSer811)-antibody from BD Pharmingen [#558389] and 1.2 nM LANCE EU-W1024 labeled anti-mouse IgG antibody [Perkin-Elmer, product no. AD0077, as an alternative a Terbium-cryptate-labeled anti-mouse IgG antibody from Cisbio Bioassays can be used]) in an aqueous EDTA-solution (100 mM EDTA, 0.2% (w/v) bovine serum albumin in 100 mM HEPES pH 7.5).
The resulting mixture was incubated 1 h at 22° C. to allow the formation of complex between the phosphorylated biotinylated peptide and the detection reagents. Subsequently the amount of phosphorylated substrate was evaluated by measurement of the resonance energy transfer from the Eu-chelate to the streptavidine-XL. Therefore, the fluorescence emissions at 620 nm and 665 nm after excitation at 350 nm were measured in a TR-FRET reader, e.g. a Rubystar (BMG Labtechnologies, Offenburg, Germany) or a Viewlux (Perkin-Elmer). The ratio of the emissions at 665 nm and at […] was taken as the measure for the amount of phosphorylated substrate. The data were normalised (enzyme reaction without inhibitor=0% inhibition, all other assay components but no enzyme=100% inhibition).
(In general: Time-resolved FRET reads energy transfer from a long-lived donor to a nearby acceptor.)

Take `CCOC(=O)N=S(C)(=O)Cc1cc2nc(c1)OCCCOc1cc(F)ccc1-c1cc(ncc1F)N2` (racemic) [Example 20, (rac)-ethyl [{[15,19-difluoro-3,4-dihydro-2H,11H-10,6-(azeno)-12,16-(metheno)-1,5,11,13-benzodioxadiazacyclooctadecin-8-yl]methyl}(methyl)oxido-λ^6-sulfanylidene]carbamate]: the IC50 is 26 nM with HeLa cells (Homo sapiens, HeLa, 96 h); 55 nM with DU145 cells (Homo sapiens, DU-145, 96 h); 44.6 nM on CDK2/CycE.
In the same order, the values of `CS(=O)(Cc1cc2nc(c1)OCCCOc1cc(F)ccc1-c1cc(ncc1F)N2)=NC(=O)OCCCl` (racemic) [Example 21, (rac)-2-chloroethyl [{[15,19-difluoro-3,4-dihydro-2H,11H-10,6-(azeno)-12,16-(metheno)-1,5,11,13-benzodioxadiazacyclooctadecin-8-yl]methyl}(methyl)oxido-λ^6-sulfanylidene]carbamate] are 11 nM, 31 nM and 74.8 nM.
On to `CS(=O)(=O)N=S(C)(=O)Cc1cc2nc(c1)OCCCOc1cc(F)ccc1-c1cc(ncc1F)N2` (racemic) [Example 22, (rac)-N-[{[15,19-difluoro-3,4-dihydro-2H,11H-10,6-(azeno)-12,16-(metheno)-1,5,11,13-benzodioxadiazacyclooctadecin-8-yl]methyl}(methyl)oxido-λ^6-sulfanylidene]methanesulfonamide], for which the IC50 with HeLa cells (Homo sapiens, HeLa, 96 h) turned out to be 17 nM; in the assay on DU145 cells (Homo sapiens, DU-145, 96 h), 40 nM; against CDK2/CycE, 195 nM.
Take `CS(=O)(Cc1cc2nc(c1)OCCCOc1cc(F)ccc1-c1cc(ncc1F)N2)=NS(=O)(=O)CCN` (racemic) [Example 23, (rac)-2-amino-N-[{[15,19-difluoro-3,4-dihydro-2H,11H-10,6-(azeno)-12,16-(metheno)-1,5,11,13-benzodioxadiazacyclooctadecin-8-yl]methyl}(methyl)oxido-λ^6-sulfanylidene]ethanesulfonamide]: the IC50 with HeLa cells (Homo sapiens, HeLa, 96 h) was 57 nM; with DU145 cells, 833 nM; against CDK2/CycE it was 272 nM.
In the case of `CS(=O)(Cc1cc2nc(c1)OCCCOc1cc(F)ccc1-c1cc(ncc1F)N2)=NS(=O)(=O)CCN.O=C(O)C(F)(F)F` (racemic) [Example 24, (rac)-2-{[{[15,19-difluoro-3,4-dihydro-2H,11H-10,6-(azeno)-12,16-(metheno)-1,5,11,13-benzodioxadiazacyclooctadecin-8-yl]methyl}(methyl)oxido-λ^6-sulfanylidene]sulfamoyl}ethanaminium trifluoroacetate], the IC50 in the assay on HeLa cells (trifluoroacetate) was determined as 82 nM; with DU145 cells (trifluoroacetate), 387 nM; against CDK2/CycE, 166 nM.
On to `CS(=O)(Cc1cc2nc(c1)OCCCOc1cc(F)ccc1-c1cc(ncc1F)N2)=NC(=O)OCCN` (racemic) [Example 25, (rac)-2-aminoethyl [{[15,19-difluoro-3,4-dihydro-2H,11H-10,6-(azeno)-12,16-(metheno)-1,5,11,13-benzodioxadiazacyclooctadecin-8-yl]methyl}(methyl)oxido-λ^6-sulfanylidene]carbamate], for which the IC50 with HeLa cells (Homo sapiens, HeLa, 96 h) is 14 nM; in the assay with DU145 cells (Homo sapiens, DU-145, 96 h), 123 nM; against CDK2/CycE it was 18 nM.
Regarding `CS(=N)(=O)Cc1cc2nc(c1)OCCCOc1cc(F)ccc1-c1cc(ncc1F)N2` (single isomer, unassigned; enantiomer 1) [Example 6, 15,19-Difluoro-8-[(S-methylsulfonimidoyl)methyl]-3,4-dihydro-2H,11H-10,6-(azeno)-12,16-(metheno)-1,5,11,13-benzodioxadiazacyclooctadecine; Enantiomer 1], the IC50 with HeLa cells (Homo sapiens, HeLa, 96 h) came out at 31 nM; with DU145 cells (Homo sapiens, DU-145, 96 h), 4 nM; on CDK2/CycE, 38.3 nM.
For the molecule `CS(=N)(=O)Cc1cc2nc(c1)OCCCOc1cc(F)ccc1-c1cc(ncc1F)N2` (single isomer, unassigned; enantiomer 2) [Example 7, 15,19-Difluoro-8-[(S-methylsulfonimidoyl)methyl]-3,4-dihydro-2H,11H-10,6-(azeno)-12,16-(metheno)-1,5,11,13-benzodioxadiazacyclooctadecine; Enantiomer 2], the results for the IC50 in the assay with HeLa cells, in the assay with DU145 cells and against CDK2/CycE were 31 nM, 5 nM and 50.4 nM, respectively.
As to `CSCc1cc2cc(c1)OCCCOc1cc(F)ccc1-c1nc(ncc1F)N2` [Example 2, 15,19-Difluoro-8-[(methylsulfanyl)methyl]-3,4-dihydro-2H,11H-12,16-(azeno)-10,6-(metheno)-1,5,11,13-benzodioxadiazacyclooctadecine], the IC50 in the assay with HeLa cells (Homo sapiens, HeLa, 96 h) worked out at 62 nM; in the assay on DU145 cells (Homo sapiens, DU-145, 96 h), 111 nM; at CDK2/CycE it was 640 nM.
Take `CSCc1cc2nc(c1)OCCCOc1cc(F)ccc1-c1cc(ncc1F)N2` [Example 3, 15,19-Difluoro-8-[(methylsulfanyl)methyl]-3,4-dihydro-2H,11H-10,6-(azeno)-12,16-(metheno)-1,5,11,13-benzodioxadiazacyclooctadecine]: the IC50 in the assay with HeLa cells (Homo sapiens, HeLa, 96 h) was found to be 86 nM; in the assay with DU145 cells (Homo sapiens, DU-145, 96 h), 88 nM; on CDK2/CycE, 128 nM.
In the same order, the values of `CS(=O)(=O)Cc1cc2nc(c1)OCCCOc1cc(F)ccc1-c1cc(ncc1F)N2` [Example 8, 15,19-difluoro-8-[(methylsulfonyl)methyl]-3,4-dihydro-2H,11H-10,6-(azeno)-12,16-(metheno)-1,5,11,13-benzodioxadiazacyclooctadecine] are 12 nM, 17 nM and 33.6 nM.
